Results as given in patent publication US11135160B2, “Use of chlorogenic acid in preparing pharmaceuticals for treatment of LAG-3-mediated disease” (SICHUAN JIUZHANG BIOLOGICAL SCIENCE AND TECHNOLOGY CO. LTD, priority 2016, dated 2021).

Experiments:
[1] = test system: CD3+T lymphocytes and CD4+T lymphocytes; assay: T cell proliferation in peripheral blood of GL261 glioma mice; assay type: in vivo, C57BL/6 mice; conditions: 40 mg/kg intraperitoneal, 7 days, vs saline control group
Method: GL261 glioma cells in exponential phase of growth were prepared as GL261 single cell suspension at a concentration of 5×10^5/μL. After anesthetized with 0.75% pentobarbital sodium at 6 μL/g, the hair at the puncture site was stripped, and the heads of mice were fixed with ALC-H mouse brain stereotactic apparatus for longitudinal incision of scalp. […] GL261 single cell suspension was injected using micro pump at 2.5 μL/min, and the pinpoint was sealed with bone wax, then the incision of scalp was carefully sutured. Totally, 35 mice were inoculated, and the remained 5 mice were normal. The dead mice were removed, and C57BL/6 mice inoculated with GL261 glioma cells were randomly divided to 3 groups, including the saline control group (NC group), chlorogenic acid injection group (CA group), and temozolomide (TMZ) positive control group. Amongst, CA group is intraperitoneally injected with 40 mg/kg chlorogenic acid everyday, NC group is injected with the same volume of saline, and TMZ treatment group orally takes 20 mg/kg temozolomide. [table] […] Detecting the proliferation status of T lymphocytes may reflect the strong/weak inhibitory action of LAG-3. […]

[2] = test system: LAG-3; assay: Content of LAG-3 in CLL cells, ELISA with human lymphocyte activation gene 3 detection kit; assay type: cell-based; conditions: 48 h
Method: (§1) CLL cells and JurkatE6-1 cells in exponential phase of growth with good conditions were inoculated in 6 well plate at a concentration of 5×10^5/ml. Each kind of cells were set four groups, and each group has three repeat holes for administration. Amongst, three chlorogenic acid groups received the drug dissolved in blank 1640 medium (1 mL) at the desired concentration, while the blank control group received the same volume of blank 1640 medium. [table] In this example, by ELISA experiment, the activity of LAG-3 in cells of each group was determined using human lymphocyte activation gene 3 detection kit. After cells of each group acted with corresponding drugs for 48 h, cell culture fluid of each group was collected and divided into two parts. The protein of one part was quantitated using BCA method, and the activity of LAG-3 in cells of each group was determined using human lymphocyte activation gene 3 detection kit, to calculate the content of LAG-3 in each group.

[3] = test system: LAG-3 gene; assay: Expression of LAG-3 gene in JurkatE6-1 cells by RT-PCR; assay type: cell-based, human; conditions: 48 h, vs blank control group (*p<0.05)
Method: (§2) CLL cells and JurkatE6-1 cells in exponential phase of growth with good conditions were inoculated in 6 well plate at a concentration of 5×10^5/ml. Each kind of cells were set four groups, and each group has three repeat holes for administration. Amongst, three chlorogenic acid groups received the drug dissolved in blank 1640 medium (1 mL) at the desired concentration, while the blank control group received the same volume of blank 1640 medium.
(§3) Using RNA prep Pure cultured cell/bacteria total RNA extraction kit (centrifugal column), total RNA was extracted from cells, and the operative procedures were carried out as the instructions. The detailed extraction procedures are briefly described as follows:
(§4) Using cDNA first strand synthesis kit and the resultant RNA solution by above extraction, the corresponding first strand cDNA was synthesized. The detailed reverse transcription procedures were carried out according to the instructions, that is briefly described as follows:
(§5) Because EvaGreen fluorescent dye can produce strong fluorescence when binding with the double-stranded DNA, the total amount of DNA formed by reaction can be obtained by detecting the final fluorescence intensity. To the test tube, were added fluorescent dye, cDNA product synthesized in steps (1) and (2), LAG-3 primer (Forward primer SEQ ID NO: 1 5′-[…]-3′, downstream primer SEQ ID NO: 2 5′-[…]-3′), and well mixed, then subjected to RT-PCR measurement. Amongst, […] group was set for each sample for calculating the relative magnitude, to perform the relative quantitation.

[4] = test system: LAG-3; assay: Content of LAG-3 in JurkatE6-1 cells, ELISA with human lymphocyte activation gene 3 detection kit; assay type: cell-based; conditions: 48 h
Method: as §1

[5] = test system: LAG-3 gene; assay: Expression of LAG-3 gene in CLL cells by RT-PCR; assay type: cell-based, human; conditions: 48 h, vs blank control group (*p<0.05)
Method: as §2, §3, §4, §5

[6] = test system: LAG-3 protein; assay: Immunohistochemistry of LAG-3 protein expression in in situ lesion of GL261 glioma mice; assay type: in vivo, C57BL/6 mice; conditions: 7 days, chlorogenic acid 40 mg/kg intraperitoneal, temozolomide 20 mg/kg oral, saline control 69%
Method: GL261 glioma cells in exponential phase of growth were prepared as GL261 single cell suspension at a concentration of 5×10^5/μL. After anesthetized with 0.75% pentobarbital sodium at 6 μL/g, the hair at the puncture site was stripped, and the heads of mice were fixed with ALC-H mouse brain stereotactic apparatus for longitudinal incision of scalp. […] GL261 single cell suspension was injected using micro pump at 2.5 μL/min, and the pinpoint was sealed with bone wax, then the incision of scalp was carefully sutured. Totally, 35 mice were inoculated, and the remained 5 mice were normal. The dead mice were removed, and C57BL/6 mice inoculated with GL261 glioma cells were randomly divided to 3 groups, including the saline control group (NC group), chlorogenic acid injection group (CA group), and temozolomide (TMZ) positive control group. Amongst, CA group is intraperitoneally injected with 40 mg/kg chlorogenic acid everyday, NC group is injected with the same volume of saline, and TMZ treatment group orally takes 20 mg/kg temozolomide. […]
After completion of experiment, in situ lesion of each group mice was cut, while the brain tissue of 5 remained normal mice mentioned in step 2.2 was cut. […] The immunohistochemical results were analyzed by semiquantitative method, and finally, the expression rate of LAG-3 protein in different tissue sample was subjected to statistical analysis.

[7] = high dose 100 μM, vs blank control group (*p<0.05)
[8] = middle dose 50 μM, vs blank control group (*p<0.05)

Row | SMILES | percentage of CD3+T lymphocytes in peripheral blood lymphocytes [1] | percentage of CD4+T lymphocytes in peripheral blood lymphocytes [1] | content of LAG-3 [2, 7] | content of LAG-3 ([2]; low dose 10 μM) | content of LAG-3 [2, 8] | expression level of LAG-3 gene ([3]; high dose 100 μM) | expression level of LAG-3 gene ([3]; low dose 10 μM) | expression level of LAG-3 gene ([3]; middle dose 50 μM) | content of LAG-3 [4, 7] | content of LAG-3 ([4]; low dose 10 μM) | content of LAG-3 [4, 8] | expression level of LAG-3 gene ([5]; high dose 100 μM) | expression level of LAG-3 gene ([5]; low dose 10 μM) | expression level of LAG-3 gene ([5]; middle dose 50 μM) | average percentage of LAG-3 protein high expression [6]
1 | O=C(/C=C/c1ccc(O)c(O)c1)O[C@@H]1C[C@](O)(C(=O)O)C[C@@H](O)[C@H]1O [chlorogenic acid, 3-o-caffeoylquinic acid] | obviously promote the proliferation | obviously promote the proliferation | obviously different | lowered | obviously different | obviously reduced | obviously reduced | obviously reduced | obviously different | lowered | obviously different | obviously different | obviously different | obviously different | 23.78%
2 | Cn1nnc2c(C(N)=O)ncn2c1=O [temozolomide, reference compound] | – | – | – | – | – | – | – | – | – | – | – | – | – | – | 44.83%
